According to US9180156B2, “Composition for controlling increase in blood glucose” (priority 2008, dated 2015):

Experiments:
[1] = Intraperitoneal glucose tolerance test (IPGTT) in rats; format: in vivo, rat; conditions: catechin 10 mg/kg i.v. 30 min before glucose 2.0 g/kg i.p.; 12-h fasted rats (FIG. 2)
Protocol: Sprague-Dawley rats were provided by Hyochang Science Co. (Seoul, Korea). After a 12-h fast, rats were anesthetized using pentobarbital sodium (40 mg/kg, i.p.; Nembutal, 50 mg/ml, Hanlim Pharmaceutical Co., Seoul, Korea) and then injected with one of the epicatechins: EGCG, EGC, ECG, and EC (each 10 mg/kg in 300 μl PBS, i.v.). EC was dissolved in a minute amount of DMSO in advance before addition of PBS. In another experiment, rats were randomly divided into 3 groups: control, GTE and GTE-GC. The rats in the GTE group were injected with natural GTE (100 mg/kg in 300 μl PBS, i.v.; 10 mg/kg as EGCG) through the tail vein, while the control rats were injected with only 300 μl PBS and rats in the GTE-GC group were given an equal amount of GC-deficient GTE (100 mg/kg in 300 μl PBS, i.v.; 2.6 mg/kg as EGCG). Thirty minutes after the injection, glucose (2.0 g/kg in 600 μl distilled water, i.p.) was injected. For OGTT, the rats were ingested with 1-ml distilled water only (control), or 1-ml distilled water containing one of natural GTE (900 mg/kg), GC-deficient GTE (900 mg/kg), EGCG (90 mg/kg), natural GTE plus PEG (110 mg/100 mg EGCG) or PEG alone. Immediately after the ingestion, each rat was orally given 1-ml distilled water containing glucose (2 g/kg). For the assay of blood glucose levels, blood was drawn from the tail vein at the indicated times. All the experiments were approved by the Keimyung University institutional ethics committee, Daegu, Korea for supervising animal research.

[2] = target: T1, glucose transporter type 1 (Homo sapiens, UniProt P11166); conditions: red blood cells; read-out: concentration competing with glucose such that the reaction rate was half its maximal value; cited from earlier work
T1 construct: glucose transporter type 1 in red blood cells; host or cells: red blood cells (erythrocytes)
T1 sequence (P11166 1-492): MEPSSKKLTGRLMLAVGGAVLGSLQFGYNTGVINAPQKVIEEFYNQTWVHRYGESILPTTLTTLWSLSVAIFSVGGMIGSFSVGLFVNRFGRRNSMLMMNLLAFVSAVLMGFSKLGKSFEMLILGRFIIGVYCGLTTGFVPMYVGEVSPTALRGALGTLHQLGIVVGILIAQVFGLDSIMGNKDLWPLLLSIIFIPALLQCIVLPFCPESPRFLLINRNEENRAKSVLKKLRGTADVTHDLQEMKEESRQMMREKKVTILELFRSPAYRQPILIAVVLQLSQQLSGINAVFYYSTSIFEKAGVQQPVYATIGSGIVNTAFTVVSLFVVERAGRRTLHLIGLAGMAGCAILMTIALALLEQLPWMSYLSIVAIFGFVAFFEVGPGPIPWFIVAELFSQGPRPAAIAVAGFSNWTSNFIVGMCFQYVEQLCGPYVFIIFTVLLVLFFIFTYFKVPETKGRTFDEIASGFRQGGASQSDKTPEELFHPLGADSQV

U937 cells = conditions: cited from earlier work
[3] = tested on: differentiated L6 myoblasts; experiment: Deoxyglucose uptake assay, L6; format: cell-based, rat; conditions: EGCG 0.1, 1.0, 10 μM; with or without 100 nM insulin (FIG. 3A)
Protocol: (§1) Rat L6 myoblasts were cultured in low-glucose DMEM with 10% (v/v) FBS until they reached 80% confluency. To induce differentiation, cells were further cultured in DMEM (24.9 mM glucose) containing 2% FBS for 7 days. Cell viability was assessed by the trypan blue viability test. Myogenic differentiation to myotube status was evaluated both morphologically and biochemically. Mouse 3T3-L1 preadipocytes were grown to confluence at 37° C. in 35-mm culture dishes in DMEM containing 10% FCS with no added biotin or pantothenate in incubators equilibrated with 5% CO2. […] Cell differentiation was evaluated by the Oil red-0 staining. […]
(§2) Briefly, after serum starvation for 30 min, the cells were washed with Krebs-Ringer phosphate-HEPES buffer [KRPH buffer: 10 mM phosphate buffer, pH 7.4; 1 mM MgSO4, 1 mM CaCl2, 136 mM NaCl, 4.7 mM KCl, and 10 mM HEPES, pH 7.6] and then incubated with or without 100 nM insulin for 20 min in KRPH buffer that contained EGCG (0, 0.1, 1.0 or 10 μM). Glucose transport was determined by the addition of 2-deoxy-[^3H] glucose (0.1 mM, 0.5 μCi/ml; PerkinElmer Life and Analytical Science, Waltham, Mass.). […] The cells were then lysed in PBS containing 0.2 M NaOH, and glucose uptake was assessed by scintillation counting.

protein kinase B (PKB) [4] = experiment: Western blot of PKB phosphorylation, INS-1; format: cell-based, rat; conditions: up to 10 μM EGCG; with or without 100 nM insulin (FIG. 4D)
INS-1 beta cells = experiment: Deoxyglucose uptake assay, INS-1; format: cell-based, rat; conditions: EGCG 0.1, 1.0, 10 μM; with or without 100 nM insulin (FIG. 3D)
Protocol: as §1, §2

protein kinase B (PKB) [5] = experiment: Western blot of PKB phosphorylation, L6; format: cell-based, rat; conditions: up to 10 μM EGCG; with or without 100 nM insulin (FIG. 4A)
Protocol: (§3) Rat L6 myoblasts were cultured in low-glucose DMEM with 10% (v/v) FBS until they reached 80% confluency. To induce differentiation, cells were further cultured in DMEM (24.9 mM glucose) containing 2% FBS for 7 days. Cell viability was assessed by the trypan blue viability test. Myogenic differentiation to myotube status was evaluated both morphologically and biochemically. Mouse 3T3-L1 preadipocytes were grown to confluence at 37° C. in 35-mm culture dishes in DMEM containing 10% FCS with no added biotin or pantothenate in incubators equilibrated with 5% CO2. At two days post-confluence (day 0), differentiation was induced with methylisobutylxanthine (0.5 mM), dexamethasone (0.5 μM) and insulin (5 μg/ml) in DMEM containing 10% FBS. On day 2, methylisobutylxanthine and dexamethasone were removed and insulin treatment was continued for 2 additional days. On day 4 and thereafter, DMEM (without insulin supplementation) plus 10% FBS was replaced every 2 days. Cells (2×10^6 cells/dish) were used for experiments on day 8. Cell differentiation was evaluated by the Oil red-0 staining. Human hepatocellular carcinoma HepG2 cell line was maintained in DMEM containing 10% FBS at 37° C. […]

[6] = relatively long-term intraperitoneal application; rats; cited from earlier work
OGTT in rats = format: in vivo, rat; conditions: GC-deficient GTE 900 mg/kg or EGCG 90 mg/kg oral immediately before oral glucose; rats (FIG. 6D)
[7] = Insulin tolerance test (ITT) in normal rats; format: in vivo, rat
Protocol: Kir6.2 knock-out (k/o) mice were kindly provided by Prof. Susumu Seino at Kobe University in Japan. Following a 4-h fast, Kir6.2 k/o mice or normal rats were intravenously injected with PBS (100 μl for mouse, 300 μl for rat) only, or PBS containing EGCG (10 mg/kg), natural GTE (100 mg/kg) or GC-deficient GTE (100 mg/kg). Thirty minutes after the injection, the mice and rats were injected intraperitoneally with normal saline (300 μl for mouse, 600 μl for rat) containing insulin (1 IU/kg; INSULIN […], Ind.). Blood samplings were done through the tail vein at the indicated times.

[8] = tested on: differentiated 3T3-L1 adipocytes; experiment: Deoxyglucose uptake assay, 3T3-L1; format: cell-based, mouse; conditions: EGCG 0.1, 1.0, 10 μM; with or without 100 nM insulin (FIG. 3C)
Protocol: as §1, §2

HepG2 hepatocytes = experiment: Deoxyglucose uptake assay, HepG2; format: cell-based, human; conditions: EGCG 0.1, 1.0, 10 μM; with or without 100 nM insulin (FIG. 3B)
Protocol: as §1, §2

protein kinase B (PKB) [9] = experiment: Western blot of PKB phosphorylation, HepG2; format: cell-based, human; conditions: up to 10 μM EGCG; with or without 100 nM insulin (FIG. 4B)
Protocol: as §3

[10] = Insulin tolerance test (ITT) in Kir6.2 k/o mice; format: in vivo, mouse
Protocol: Kir6.2 knock-out (k/o) mice were kindly provided by Prof. Susumu Seino at Kobe University in Japan. Following a 4-h fast, Kir6.2 k/o mice or normal rats were intravenously injected with PBS (100 μl for mouse, 300 μl for rat) only, or PBS containing EGCG (10 mg/kg), natural GTE (100 mg/kg) or GC-deficient GTE (100 mg/kg). Thirty minutes after the injection, the mice and rats were injected intraperitoneally with normal saline (300 μl for mouse, 600 μl for rat) containing insulin (1 IU/kg; INSULIN LISPRO, Eli Lilly, Ind.). Blood samplings were done through the tail vein at the indicated times.

protein kinase B (PKB) [11] = experiment: Western blot of PKB phosphorylation, 3T3-L1; format: cell-based, mouse; conditions: up to 10 μM EGCG; with or without 100 nM insulin (FIG. 4C)
Protocol: as §3

[12] = 10 mg/kg i.v.; rats; cited from earlier work

O=C(O[C@@H]1Cc2c(O)cc(O)cc2O[C@@H]1c1ccc(O)c(O)c1)c1cc(O)c(O)c(O)c1 [ECG, epicatechin-3-gallate]
blood glucose levels 30 min after glucose loading vs control [1]: more elevated | IC50 [2]: 100 nM

Oc1cc(O)c2c(c1)O[C@H](c1cc(O)c(O)c(O)c1)[C@H](O)C2 [EGC, epigallocatechin]
blood glucose levels 30 min after glucose loading vs control [1]: no effects

O=c1c(O)c(-c2cc(O)c(O)c(O)c2)oc2cc(O)cc(O)c12 [myricetin]
concentration that inhibits cellular glucose uptake (U937 cells): around 10 μM

O=c1c(O)c(-c2ccc(O)c(O)c2)oc2cc(O)cc(O)c12 [quercetin]
concentration that inhibits cellular glucose uptake (U937 cells): around 10 μM

Epigallocatechin-3-gallate [EGCG]
basal and insulin-stimulated 2-deoxy-[3H]-glucose uptake [3]: decreased by EGCG dose-dependently | basal and insulin-regulated expression of phospho-PKB (protein kinase B (PKB) [4]): did not alter | basal and insulin-stimulated 2-deoxy-[3H]-glucose uptake (INS-1 beta cells): decreased by EGCG dose-dependently | basal and insulin-regulated expression of phospho-PKB (protein kinase B (PKB) [5]): did not alter | blood glucose levels 30 min after glucose loading vs control [1]: more elevated | effect on body weight [6]: weight loss | effect on the sexual organs [6]: significant deterioration in the sexual organs | inhibition of glucose absorption compared with the GTE-treated group (OGTT in rats): less efficiently | rate of blood glucose disappearance when treated with insulin ([7]; EGCG 10 mg/kg i.v. 30 min before insulin 1 IU/kg i.p., rats, P<0.01 (FIG. 5C)): delayed mildly but significantly | blood glucose levels 30 min after injection ([7]; EGCG 10 mg/kg i.v., 4-h fasted normal rats, P<0.01 (FIG. 5A)): significant elevation | basal and insulin-stimulated 2-deoxy-[3H]-glucose uptake [8]: decreased by EGCG dose-dependently | basal and insulin-stimulated 2-deoxy-[3H]-glucose uptake (HepG2 hepatocytes): decreased by EGCG dose-dependently | basal and insulin-regulated expression of phospho-PKB (protein kinase B (PKB) [9]): did not alter | rate of blood glucose disappearance when treated with insulin ([10]; EGCG 10 mg/kg i.v. 30 min before insulin 1 IU/kg i.p., Kir6.2 k/o mice, P<0.01 (FIG. 5D)): delayed mildly but significantly | blood glucose levels 30 min after injection ([10]; EGCG 10 mg/kg i.v., 4-h fasted Kir6.2 k/o mice, P<0.01 (FIG. 5B)): significant elevation | basal and insulin-regulated expression of phospho-PKB (protein kinase B (PKB) [11]): did not alter | blood concentration at 30 min after injection [12]: around 1 μM | IC50 [2]: 1000 nM
